Assay results published in article PMC3813382 (The Journal of General Physiology, 2013).

Biological target: T1, Slo2.1 (Homo sapiens, UniProt Q6UVM3)
T1 sequence (Q6UVM3 1-1135): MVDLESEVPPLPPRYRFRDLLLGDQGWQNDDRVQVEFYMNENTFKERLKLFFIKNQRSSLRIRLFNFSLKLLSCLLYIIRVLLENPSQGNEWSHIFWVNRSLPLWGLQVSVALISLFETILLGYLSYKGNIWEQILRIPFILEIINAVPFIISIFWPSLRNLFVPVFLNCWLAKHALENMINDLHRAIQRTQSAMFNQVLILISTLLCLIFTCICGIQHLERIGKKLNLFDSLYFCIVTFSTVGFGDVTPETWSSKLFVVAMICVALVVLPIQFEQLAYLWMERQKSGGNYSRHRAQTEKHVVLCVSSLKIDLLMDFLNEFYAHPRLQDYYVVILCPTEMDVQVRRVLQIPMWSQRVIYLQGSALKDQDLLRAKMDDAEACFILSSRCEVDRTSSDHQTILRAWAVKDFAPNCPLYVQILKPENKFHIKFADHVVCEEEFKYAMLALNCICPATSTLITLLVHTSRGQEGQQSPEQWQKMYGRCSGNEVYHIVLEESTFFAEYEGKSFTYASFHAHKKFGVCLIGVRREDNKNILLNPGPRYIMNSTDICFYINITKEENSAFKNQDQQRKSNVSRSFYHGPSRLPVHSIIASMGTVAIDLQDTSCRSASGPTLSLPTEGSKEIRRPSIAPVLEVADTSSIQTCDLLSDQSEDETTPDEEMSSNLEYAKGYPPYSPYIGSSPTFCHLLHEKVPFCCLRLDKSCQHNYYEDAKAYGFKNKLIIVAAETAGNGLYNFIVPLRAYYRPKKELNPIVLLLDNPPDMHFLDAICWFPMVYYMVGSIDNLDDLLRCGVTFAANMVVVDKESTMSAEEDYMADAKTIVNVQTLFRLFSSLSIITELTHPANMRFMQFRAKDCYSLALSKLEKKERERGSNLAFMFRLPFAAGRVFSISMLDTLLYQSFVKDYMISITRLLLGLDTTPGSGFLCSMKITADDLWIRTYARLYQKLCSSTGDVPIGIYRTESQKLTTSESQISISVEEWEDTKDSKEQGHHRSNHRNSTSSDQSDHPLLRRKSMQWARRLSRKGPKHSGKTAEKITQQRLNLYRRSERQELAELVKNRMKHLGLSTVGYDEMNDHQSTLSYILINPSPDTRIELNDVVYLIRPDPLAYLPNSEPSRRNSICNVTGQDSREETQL
Assay: Excised inside-out macropatch recordings of ISlo2.1 from oocytes
Type: cell-based
Details: 10 µM in bath (cytosolic) solution

With `CCCCCCCC(=O)OC[C@H](COP(=O)(O)O[C@@H]1[C@H](O)[C@H](O)[C@@H](OP(=O)(O)O)[C@H](OP(=O)(O)O)[C@H]1O)OC(=O)CCCCCCC` [PI(4,5)P2 diC8, phosphatidylinositol 4,5-bisphosphate diC8] as the compound, how does the “effect on run-down of macroscopic ISlo2.1 in excised patches” value read?
Its value is “preventable”.
